The values that follow come from patent US20110224079A1, “SPIROHETEROCYCLIC N-OXYAMIDES AS PESTICIDES” (SYNGENTA CROP PROTECTION LLC, priority 2008, published 2011).

One data set has as its system pepper plants. As to conditions: in vivo. The procedure:
(§1) Comparison of the Insecticidal Activity and Crop Compatibility of Compounds According to the Invention with a Compound from the State of the Art (Compound No. A18 Described on Page 97 of WO09/049,851)
(§2) (Mixed Population, Drench Application in Field Soil, Persistence, Plant Damage Evaluation)
(§3) Samples are assessed 7 days after infestation on mortality. Treated plants are re-infested 7, 14, 21 and 28 days after application. Evaluation is always done 7 days after infestation. Plants are also checked for damage (phytotoxicity), visual assessment being made using a 0-100% rating scale (100%=total damage to plant; 0%=no damage to plant).

In data set [1] the test system is Myzus persicae (green peach aphid). The data set can be described thus: Example B15: drench activity (death rate, persistence) against Myzus persicae on pepper plants in field soil, comparison with A18. It is filed as in vivo. As to conditions: for Mortality (%) xx days after application (drench, systemic action, persistence): 12.5 ppm drench, pepper plants in field soil, evaluation 7 days after infestation; for insecticidal action on Myzus persicae compared with state-of-the-art compound A18 (in words): drench application on pepper plants, summary of Table B15. The method, then:
as §1, §2, §3

Data set [2] has as its system Bemisia tabaci (tobacco white fly). Nature of the data set: Example B7: activity against Bemisia tabaci, sprayed bean plants (larvicide, contact/feeding). It is filed as in vivo. As to conditions: 504 h, bean plants with N-2 nymphs sprayed, three weeks, read-out: activity (efficacy, number of emerged adults). In outline: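 After a 4-day egg-laying period and 7 further days, bean plants bearing hatched N-2 nymphs were sprayed with test solutions (2 replicates). Emerged adults were counted three weeks later; efficacy was derived by comparison with untreated samples.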

For data set [3], the system named is Nilaparvata lugens (brown rice planthopper). The data set can be described thus: Example B8: activity against Nilaparvata lugens, sprayed rice seedlings (larvicide, feeding/contact). As to conditions: in Oryza sativa, read-out: activity (mortality, growth regulation, effects on F1 generation).
Data set [4] concerns Aphis Craccivora (cowpea aphid). Nature of the data set: Example B11: translaminar activity against Aphis craccivora on French bean leaves. It is filed as in vivo. As to conditions: 120 h, upper leaf side painted, aphids on lower side, 5 days. The procedure: Translaminar Activity Against Aphis Craccivora (Cowpea Aphid)
French bean leaves (Phaseolus vulgaris) are infested with about 20 mixed age individuals on the lower leaf side using clip cages. 1 day after the infestation, the upper side of the leaves is treated with the test solution by painting. 5 days later, samples are checked for mortality.

In data set [5] the test system is Myzus persicae (green peach aphid). The data set can be described thus: Example B1: activity against Myzus persicae, sprayed sunflower leaf discs (feeding/residual contact, preventive). As to conditions: foliar, 144 h, read-out: activity (mortality).
For data set [6] the test system is unchanged. The data set can be described thus: Example B17: activity against Myzus persicae on sprayed pepper plants (feeding/residual contact). It is filed as in vivo. As to conditions: 144 h, infested pepper plants sprayed, 6 days.
The test system is the same in data set [7]. The data set can be described thus: Example B2: activity against Myzus persicae, pea seedling roots in test solution (systemic/feeding, curative). As to conditions: 144 h, read-out: activity (mortality).
Data set [8] has the same test system. The data set can be described thus: Example B13: drench activity against Myzus persicae, pea seedlings in field soil. As to conditions: 168 h, read-out: drench activity (mortality).
In data set [9] the test system is Plutella xylostella (diamond back moth). Nature of the data set: Example B5: activity against Plutella xylostella, artificial diet in microtiter plate (larvicide, preventive). Type of data set: in vivo. As to conditions: 120 h, L2 larvae, 5 days, read-out: activity (larval mortality, antifeedant, growth regulation). The procedure: Activity Against Plutella xylostella (Diamond Back Moth)
(Larvicide, Feeding/Residual Contact Activity, Preventive)
24-well microtiter plate (MTP) with artificial diet is treated with test solutions by pipetting. After drying, the MTP's are infested with larvae (L2)(10-15 per well). After an incubation period of 5 days, samples are checked for larval mortality, antifeedant and growth regulation.

In data set [10] the test system is Aonidiella Aurantii (red scale). Nature of the data set: Example B12: activity against Aonidiella aurantii, dipped potato tubers. Type of data set: in vivo. As to conditions: 6-8 weeks after application, read-out: activity (number of crawlers of the next generation). An excerpt: Activity Against Aonidiella Aurantii (Red Scale)
Treatment of potato tubers by dipping the in the test solution. One day later, tubers are infested with about 50 crawlers. 6-8 weeks after application samples are checked for the number of crawlers of the next generation (compared to the non treated samples).

Data set [11] relates to Tetranychus urticae (two-spotted spider mite). The data set can be described thus: Example B4: activity against Tetranychus urticae, sprayed bean leaf discs (feeding/residual contact, preventive). As to conditions: foliar, 192 h, read-out: activity (egg, larval and adult mortality).
For data set [12], the system named is Thrips tabaci (onion thrips). Nature of the data set: Example B3: activity against Thrips tabaci, sprayed sunflower leaf discs (feeding/residual contact, preventive). Type of data set: in vivo. As to conditions: foliar, 144 h, mixed population, 6 days. The text has this:
Activity Against Thrips tabaci (Onion Thrips)
(Mixed Population, Feeding/Residual Contact Activity, Preventive)

Data set [13] concerns Aphis Craccivora (cowpea aphid). Nature of the data set: Example B10: activity against Aphis craccivora, pea seedling roots in test solution (systemic/feeding). Type of data set: in vivo. As to conditions: 144 h, roots of infested pea seedlings in test solution, 6 days. The text has this:
(§4) Activity Against Aphis Craccivora (Cowpea Aphid)
(Mixed Population, Systemic/Feeding)

The test system of data set [14] is Frankliniella occidentalis (western flower thrips). Nature of the data set: Example B6: activity against Frankliniella occidentalis, bean leaf discs or bean plants. It is filed as in vivo. As to conditions: foliar, 6 days (leaf discs) or 14 days (plants) after infestation, read-out: activity (reduction of treated population). In outline: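 Bean leaf discs on agar or whole bean plants sprayed with diluted test solutions, then infested with a mixed thrips population after drying. Population reduction versus untreated assessed 6 days (discs) or 14 days (plants) after infestation.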

Data set [15] has as its system Aphis Craccivora (cowpea aphid). Nature of the data set: Example B16: activity against Aphis craccivora on broad bean plants, adjuvant effect, curative (EC050 spray). Type of data set: in vivo. As to conditions: 3 ppm, adjuvant (if any) 0.1% (v/v), 7 days after treatment. The method, then: One day after infestation, plants are treated with diluted test solutions of the compound formulated as EC050 in a spray chamber (4 replicates). Optionally, an adjuvant is added with 0.1% (v/v) to the spray solution. 7 days after treatment samples are checked for mortality. Efficacy was calculated with the aid of Abbott's formula.

For data set [16] the test system is unchanged. The data set can be described thus: Example B9: activity against Aphis craccivora, sprayed pea seedlings (contact/feeding). Type of data set: in vivo. As to conditions: 144 h, infested pea seedlings sprayed, 6 days.
Source text: as §4
(Mixed Population, Contact/Feeding)
6 days after treatment, samples are checked for mortality.

Data set [17] deals with cowpea aphid (Aphis craccivora). Nature of the data set: Example B14: insecticide seed treatment of sugarbeet seeds, infestation with cowpea aphid. Type of data set: in vivo. As to conditions: 0.3 mg a.i./seed, infested after 14 days, counted 7 days later. The procedure:
Insecticide Seed Treatment
Sugarbeet seeds are treated with test compounds at various rates (mg a.i./seed). The seeds are sown into pots filled with soil. After placing the seeds on the soil surface they are further covered with soil. Before and during the bioassays, the plants are grown under optimal greenhouse conditions. After 14 days, the plants are infested with cowpea aphid (Aphis craccivora) by placing one infested pea seedling containing approximately 150 aphids of a population of mixed developmental stages onto each plant. Seven days after infestation, the number of aphids is counted per plant. Each treatment group is replicated 10 times. Each replicate contains 1 plant.

[18] abbreviates: infestation 0 days after application.
Where [19] appears, read: re-infestation 7 days after application.
[20] abbreviates: re-infestation 14 days after application.
The mark [21] stands for this setting: re-infestation 21 days after application.
Setting [22] is: re-infestation 28 days after application.

`CCOC(=O)OC1=C(c2c(C)cc(C)cc2C)C(=O)NC12CCN(OC)CC2` [A18, reference compound]: in the data set on pepper plants, the “plant damage on pepper plants / plant compatibility (in words)” value was “damages these to an untolerable high extend”. Besides, the “Mortality (%) xx days after application (drench, systemic action, persistence)” value (shortened to “Mortality (%) xx days after application”) in data set [1] (setting [18]) came to 100%; in data set [1] (setting [19]), 100%; in data set [1] (setting [20]) it was 98%; in [1] (setting [21]) it was 95%; in data set [1] (setting [22]), 95%.
`CCOC(=O)OC1=C(c2c(C)cc(C)cc2C)C(=O)N(OCOC)C12CCN(OC)CC2` [P1.7, carbonic acid ethyl ester 8-methoxy-1-methoxymethoxy-2-oxo-3-(2,4,6-trimethyl-phenyl)-1,8-diaza-spiro[4.5]dec-3-en-4-yl ester]: the pest or weed control at 200 ppm in data set [2] and in data set [10] was > 80% throughout. Moreover, the mortality at 400 ppm in data set [3], in data set [4], in data set [5], in data set [7] and in [9] was > 80% each time. Moreover, the “plant damage on pepper plants / plant compatibility (in words)” value in the data set on pepper plants was “no plant damage at all”. Moreover, the mortality at 200 ppm in [6] is ≥ 80%. Also, the “Mortality (%) xx days after application” value in data set [1] (setting [18]) was 99%; in data set [1] (setting [19]), 100%; in [1] (setting [20]), 98%; in data set [1] (setting [21]), 98%; in data set [1] (setting [22]), 97%. Further, the “insecticidal action on Myzus persicae compared with state-of-the-art compound A18 (in words)” value in [1] is “very similar to the action of the compound of the state of the art”. Moreover, the mortality at 25 ppm in data set [8] was > 80%.
In the case of `CCOC(=O)OC1=C(c2c(C)cc(C)cc2C)C(=O)N(O)C12CCN(OC)CC2` [P1.11, carbonic acid ethyl ester 1-hydroxy-8-methoxy-2-oxo-3-(2,4,6-trimethyl-phenyl)-1,8-diaza-spiro[4.5]dec-3-en-4-yl ester], the pest or weed control at 200 ppm in data set [2] and in [10] was > 80% in each case. Further, the mortality at 400 ppm in [3], in data set [11], in data set [5], in data set [7], in data set [12] and in data set [13] was > 80% throughout. The mortality at 400 ppm in data set [9] was > 80%. In addition, the “plant damage on pepper plants / plant compatibility (in words)” value in the data set on pepper plants was “no plant damage at all”. For the same compound, the mortality at 200 ppm in data set [6] was ≥ 80%. Further, the “Mortality (%) xx days after application” value is recorded as 97% in data set [1] (setting [18]); 95% in data set [1] (setting [19]); 95% in data set [1] (setting [20]); 100% in data set [1] (setting [21]); 100% in data set [1] (setting [22]). Moreover, in data set [1], the “insecticidal action on Myzus persicae compared with state-of-the-art compound A18 (in words)” value is given as “very similar to the action of the compound of the state of the art”. Also, the mortality at 25 ppm in data set [8] was > 80%.
Take `CCOC(=O)OC1=C(c2c(C)cc(C)cc2C)C(=O)N(OCC)C12CCN(OC)CC2` [P1.15]: the pest or weed control at 200 ppm in [2] and in [10] was > 80% throughout. Besides, the mortality at 400 ppm in data set [3], in data set [11], in data set [4], in [5], in [16] and in [7] was > 80% in each case. Further, the mortality at 400 ppm in data set [13] was > 80%. The pest or weed control at 400 ppm in data set [14] is > 80%. The mortality at 200 ppm in [6] was ≥ 80%. In addition, the “Abbott's efficacy (%) against Aphis craccivora” value in data set [15] (Table B16a) is reported as 3%; in [15] (Table B16b), 11%. Also, the mortality at 25 ppm in data set [8] was > 80%.
As to `COCON1C(=O)C(c2cc(C)ccc2C)=C(O)C12CCN(OC)CC2` [P2.2, 3-(2,5-dimethyl-phenyl)-4-hydroxy-8-methoxy-1-methoxymethoxy-1,8-diaza-spiro[4.5]dec-3-en-2-one], the pest or weed control at 200 ppm in [2] is > 80%. For the same compound, the “efficacy in the reduction of aphids compared to the untreated control plants” value in data set [17] stood at 60%. Besides, the mortality at 400 ppm in [3], in [4], in data set [5], in data set [7] and in data set [9] was > 80% throughout. Moreover, in data set [6], the mortality at 200 ppm is ≥ 80%. The mortality at 25 ppm in data set [8] is > 80%.
